# Test results: US6469006B1, “Antiviral indoleoxoacetyl piperazine derivatives” (priority 1999, dated 2002)
# System: single-round infectious HIV-1 reporter virus
# Assay: microbe, parasite or virus in culture
# Assay type: cell-based
# Settings: for % Inhibition @ 10 μM: Table 4; for % Inhibition @ 10 μM / % Inhibition @ 10 uM: HeLa CD4 CCR5 cells, luciferase reporter virus, 3 days after infection; for % Inhibition @ 10 uM: Table 1, Examples 35-90
# Excerpt: The virus infection was quantified 3 days after infection by measuring luciferase expression from integrated viral DNA in the infected cells (Chen et al, Ref. 41).
# Virus production—Human embryonic Kidney cell line, 293, propagated in Dulbecco's Modified Eagle Medium (Life Technologies, Gaithersburg, Md.) containing 10% fetal Bovine serum (FBS, Sigma, St. Louis, Mo.).
# Virus infection—Human epithelial cell line, HeLa, expressing the HIV-1 receptors CD4 and CCR5 was propagated in Dulbecco's Modified Eagle Medium (Life Technologies, Gaithersburg, Md.) containing 10% fetal Bovine serum (FBS, Sigma, St. Louis, Mo.) and supplemented with 0.2 mg/ml Geneticin (Life Technologies, Gaithersburg, Md.) and 0.4 mg/ml Zeocin (Invitrogen, Carlsbad, Calif.).
# Virus-Replication defective reporter virus was produced by co-transfecting human embryonic Kidney 293 cells with an HIV-1 envelope DNA expression vector and a proviral cDNA containing an envelope deletion mutation and the luciferase reporter gene inserted in place of HIV-1 nef sequences (Chen, 1994). Transfections were performed using lipofectAMINE PLUS reagent as described by the manufacturer (Life Technologies, Gaithersburg, Md.).
# 1. Compound was added to HeLa CD4 CCR5 cells plated in 96 well plates at a cell density of 5×10^4 cells per well in 100 ul Dulbecco's Modified Eagle Medium containing 10% fetal Bovine serum at a concentration of <20 uM.
# 2. 100 ul of replication defective reporter virus in Dulbecco's Modified Eagle Medium was then added to the plated cells and compound at a multiplicity of infection (MOI) of 0.01, resulting in a final volume of 200 ul per well and a final compound concentration of <10 uM.
# 3. Samples were harvested 72 hours after infection.
# 4. Viral infection was monitored by measuring luciferase expression from viral DNA in the infected cells using a luciferase reporter gene assay kit (Roche Molecular Biochemicals, Indianapolis, Ind.). Infected cell supernatants were removed and 50 ul of Dulbecco's Modified Eagle Medium (without phenol red) and 50 ul of luciferase assay reagent reconstituted as described by the manufacturer (Roche Molecular Biochemicals, Indianapolis, Ind.) was added per well. Luciferase activity was then quantified by measuring luminescence using a Wallac microbeta scintillation counter.
SMILES,% Inhibition @ 10 μM [%],% Inhibition @ 10 uM [%],also measured
CC1CN(C(=O)c2ccccn2)CCN1C(=O)C(=O)c1c[nH]c2c(F)ccc(F)c12 (centres unmarked) [Entry 196],>98,–,–
Cc1ccc(F)c2c(C(=O)C(=O)N3CCN(C(=O)c4ccccn4)CC3C)c[nH]c12 (centres unmarked) [Entry 197],93,–,–
CC1CN(C(=O)c2ccc(Br)o2)CCN1C(=O)C(=O)c1c[nH]c2c(F)ccc(F)c12 (centres unmarked) [Entry 198],>98,–,–
COc1ccc(OC)c2c(C(=O)C(=O)N3CCN(C(=O)c4ccc(Br)o4)CC3C)c[nH]c12 (centres unmarked) [Entry 199],>98,–,–
COC(=O)c1cccc2c(C(=O)C(=O)N3CCN(C(=O)c4ccc(Br)o4)CC3C)c[nH]c12 (centres unmarked) [Entry 200],>98,–,–
CC1CN(C(=O)c2ccccn2)CCN1C(=O)C(=O)c1c[nH]c2c(F)ccc(F)c12 (centres unmarked) [Entry 201],>98,–,–
CC1CN(C(=O)c2ccccn2)CCN1C(=O)C(=O)c1c[nH]c2cccc(F)c12 (centres unmarked) [Entry 202],>98,–,–
CC1CN(C(=O)c2ccccn2)CCN1C(=O)C(=O)c1c[nH]c2cccc(Cl)c12 (centres unmarked) [Entry 203],80,–,–
CC1CN(C(=O)c2ccccn2)CCN1C(=O)C(=O)c1c[nH]c2cccc(Br)c12 (centres unmarked) [Entry 204],50,–,–
CC1CN(C(=O)c2ccccn2)CCN1C(=O)C(=O)c1c[nH]c2ccc(F)cc12 (centres unmarked) [Entry 205],61,–,–
CC1CN(C(=O)c2ccccn2)CCN1C(=O)C(=O)c1c[nH]c2cc(Cl)ccc12 (centres unmarked) [Entry 206],88,–,–
CC1CN(C(=O)c2ccccn2)CCN1C(=O)C(=O)c1c[nH]c2c(F)cccc12 (centres unmarked) [Entry 207],>98,–,–
COc1cccc2c(C(=O)C(=O)N3CCN(C(=O)c4ccccn4)C[C@H]3C)c[nH]c12 [Entry 208],>98,–,–
Cc1cccc2c(C(=O)C(=O)N3CCN(C(=O)c4ccccn4)C[C@H]3C)c[nH]c12 [Entry 209],>98,–,–
CCc1cccc2c(C(=O)C(=O)N3CCN(C(=O)c4ccccn4)C[C@H]3C)c[nH]c12 [Entry 210],88,–,–
COc1ccc(Cl)c2[nH]cc(C(=O)C(=O)N3CCN(C(=O)c4ccccn4)C[C@H]3C)c12 [Entry 211],>98,–,–
COc1cccc2[nH]cc(C(=O)C(=O)N3CCN(C(=O)c4ccccn4)C[C@H]3C)c12 [Entry 213],>98,–,–
COc1ccc(Br)c2[nH]cc(C(=O)C(=O)N3CCN(C(=O)c4ccccn4)C[C@H]3C)c12 [Entry 214],>98,–,–
COc1ccc(F)c2c(C(=O)C(=O)N3CCN(C(=O)c4ccccn4)C[C@H]3C)c[nH]c12 [Entry 215],>98,–,–

SMILES,% Inhibition @ 10 μM [%],% Inhibition @ 10 uM [%],also measured
Nc1cccc(C(=O)N2CCN(C(=O)C(=O)c3c[nH]c4ccccc34)CC2)c1 [Example 72],–,87,–
Nc1cccc(C(=O)N2CCN(C(=O)C(=O)c3c[nH]c4c(F)ccc(F)c34)CC2)c1 [Example 73],–,>98,–
CC1CN(C(=O)c2cccc(N)c2)CCN1C(=O)C(=O)c1c[nH]c2c(F)ccc(F)c12 (centres unmarked) [Example 74],–,>98,–
CC1CN(C(=O)c2ccc(N)cc2)CCN1C(=O)C(=O)c1c[nH]c2c(F)ccc(F)c12 (centres unmarked) [Example 75],–,>98,–
CC1CN(C(=O)c2cccc(N)c2)CCN1C(=O)C(=O)c1c[nH]c2cccc(F)c12 (centres unmarked) [Example 76],–,>98,–
COc1ccc(Cl)c2[nH]cc(C(=O)C(=O)N3CCN(C(=O)c4cccc(N)c4)CC3C)c12 (centres unmarked) [Example 77],–,>98,–
COc1ccc(Cl)c2[nH]cc(C(=O)C(=O)N3CCN(C(=O)c4ccc(N)cc4)CC3C)c12 (centres unmarked) [Example 78],–,>98,–
COc1cccc2[nH]cc(C(=O)C(=O)N3CCN(C(=O)c4cccc(N)c4)CC3C)c12 (centres unmarked) [Example 79],–,>98,–
COc1ccc(F)c2c(C(=O)C(=O)N3CCN(C(=O)c4cccc(N)c4)CC3C)c[nH]c12 (centres unmarked) [Example 80],–,>98,–
COc1ccc(F)c2c(C(=O)C(=O)N3CCN(C(=O)c4ccc(N)cc4)CC3C)c[nH]c12 (centres unmarked) [Example 81],–,>98,–
CC(=O)Oc1ccccc1C(=O)N1CCN(C(=O)C(=O)c2c[nH]c3cccc(F)c23)CC1 [Example 82],–,91,–
CC(=O)Oc1cccc(C(=O)N2CCN(C(=O)C(=O)c3c[nH]c4cccc(F)c34)CC2)c1 [Example 83],–,>98,–
CC(=O)Oc1ccc(C(=O)N2CCN(C(=O)C(=O)c3c[nH]c4cccc(F)c34)CC2)cc1 [Example 84],–,98,–
CC(=O)Oc1ccc(C(=O)N2CCN(C(=O)C(=O)c3c[nH]c4cccc(Cl)c34)CC2)cc1 [Example 85],–,93,–
CC(=O)Oc1cccc(C(=O)N2CCN(C(=O)C(=O)c3c[nH]c4cccc(Cl)c34)CC2)c1 [Example 86],–,>98,–
O=C(C(=O)N1CCN(C(=O)c2ccccc2O)CC1)c1c[nH]c2cccc(F)c12 [Example 87],–,86,–
O=C(C(=O)N1CCN(C(=O)c2cccc(O)c2)CC1)c1c[nH]c2cccc(F)c12 [Example 88],–,>98,–
O=C(C(=O)N1CCN(C(=O)c2ccc(O)cc2)CC1)c1c[nH]c2cccc(F)c12 [Example 89],–,95,–
C[C@@H]1CN(C(=O)c2ccccn2)CCN1C(=O)C(=O)c1c[nH]c2c(C#N)cccc12 [Example 212],–,–,"inhibition at 10 µM (Human immunodeficiency virus 1, HeLa-CD4/CCR5, 72 h, read-out: % Inhibition @ 10 μM): > 98%"
